Experimental data as given in patent US20040063721A1, “Agonism of the 5HT2A receptor for treatment of thermoregulatory dysfunction” (Wyeth, priority 2002, published 2004).
Entries after “also recorded” stand apart in the source; their conditions may differ.

Test system: morphine-dependent rat model of vasomotor instability
Test: Morphine-dependent naloxone-induced flush model (tail skin temperature)
Format: in vivo
Conditions: for effect on basal tail skin temperature prior to administration of naloxone: ovariectomized morphine-dependent rats, MDL-100907 0.3, 1 mg/kg, DOI 1 mg/kg, FIG. 1
[1] = Example 2, sc 20 min prior to naloxone, 5HT2c agonist 0.1, 3.0 mg/kg, 5HT2c antagonist 0.1, 1.0 mg/kg, FIG. 2
[2] = Example 1, sc 20 min prior to naloxone
[3] = Example 3, fluoxetine 10 mg/kg sc 1 h prior and/or WAY-100635 1 mg/kg sc 20 min prior to naloxone, FIG. 3

Compound: Cc1cc2c(cc1Cl)N(C(=O)Nc1ccc(Oc3cccnc3C)nc1)CC2 [6-Chloro-5-methyl-1-[[2-[(2-methyl3-pyridyl)oxy]-5-pyridyl]carbamoyl]indoline]
- abatement of naloxone-induced flush (changes in TST, Δ°C, mean, over time) [1]: did not significantly abate naloxone-induced flush

Compound: c1cc2c3c(c1)[C@H]1CCC[C@H]1N3CCNC2 [(7bR, 10aR)-1,2,3,4,8,9,10,10a-octahydro-7bH-cyclopenta[b][1,4]diazepino[6,7,1-hi]indole]
- abatement of naloxone-induced flush (changes in TST, Δ°C, mean, over time) [1]: did not significantly abate naloxone-induced flush

Compound: COc1cc(CC(C)N)c(OC)cc1I.Cl (stereo not shown) [DOI, 1-(2,5-dimethoxy-4-iodophenyl)-2-aminopropane hydrochloride]
- abatement of naloxone-induced flush (change in TST) (Example 1, DOI 1 mg/kg sc 20 min prior to naloxone, FIG. 1B, hydrochloride): preventing a naloxone-induced increase in tail-skin temperature; also recorded: significantly abated the naloxone-induced flush
- effect on basal tail skin temperature prior to administration of naloxone [2]: without affecting basal tail skin temperature

Compound: COc1cccc([C@H](O)C2CCN(CCc3ccc(F)cc3)CC2)c1OC [MDL-100907]
- effect on basal tail skin temperature prior to administration of naloxone [2]: significantly induced an increase in tail skin temperature
- effect on the combination drug abatement of the naloxone-induced flush at maximal flush (Example 5, MDL-100907 0.01 or 0.1 mg/kg 55 min prior to naloxone, then fluoxetine 10 mg/kg + WAY-100635 0.01 mg/kg, 15 min post-naloxone, FIG. 5A): dose-dependently reversed
- effect on fluoxetine (10 mg/kg) action on naloxone-induced flush at maximal flush (Example 5, MDL-100907 0.01 or 0.1 mg/kg 55 min prior to naloxone, then fluoxetine 10 mg/kg, 15 min post-naloxone, FIG. 5B): potentiated
- effect on fluoxetine (30 mg/kg) abatement of naloxone-induced hot flush (Example 5, MDL-100907 0.01 or 0.1 mg/kg prior to fluoxetine 30 mg/kg, FIG. 5C): potentiated the abatement effect

Compound: COc1ccccc1N1CCN(CCN(C(=O)C2CCCCC2)c2ccccn2)CC1 [WAY-100635, N-[2-[4-(2-Methoxyphenyl)-1-piperazinyl]ethyl]-N-2-pyridinylcyclohexanecarboxamide]
- abatement of naloxone-induced flush (changes in TST, Δ°C, mean, over time) [3]: did not significantly abate naloxone-induced flush
- ED50 (Rattus norvegicus, 0.25 h, Example 4, WAY-100635 0.01, 0.1 or 1.0 mg/kg sc combined with fluoxetine 10 mg/kg, 15 min post-naloxone, FIG. 4B, read-out: ED50 value, abatement of naloxone-induced flush at maximal flush): 0.01 ± 0.009 mg/kg

Compound: CNCCC(Oc1ccc(C(F)(F)F)cc1)c1ccccc1 (stereo not shown) [fluoxetine]
- abatement of naloxone-induced flush (changes in TST, Δ°C, mean, over time) [3]: did not significantly abate naloxone-induced flush
- abatement of naloxone-induced flush by fluoxetine alone (Example 5, fluoxetine 10 mg/kg sc): ineffective
- abatement of naloxone-induced hot flush by fluoxetine alone (Example 5, fluoxetine 30 mg/kg sc): abates a naloxone-induced hot flush
